Measurements: BigSolDB 2.1

CC(C)C(=O)Nc1ccc([N+](=O)[O-])c(C(F)(F)F)c1
solubility (mole fraction)
Details	278.15 K	283.15 K	288.15 K	293.15 K	298.15 K	303.15 K	308.15 K	313.15 K	318.15 K	323.15 K
in 1,4-dioxane	–	0.12	0.139	0.16	0.184	0.21	0.239	0.272	0.307	0.338
in acetonitrile	0.0592	0.0749	0.0939	0.115	0.144	0.177	0.217	0.262	0.314	0.375
in ethanol	0.0365	0.0435	0.0522	0.0617	0.0728	0.0858	0.1	0.116	0.136	0.156
in isopropanol	0.0583	0.0664	0.0756	0.0861	0.0979	0.11	0.125	0.14	0.155	0.176
in water	2.41e-07	3.17e-07	4.02e-07	5.23e-07	6.68e-07	8.38e-07	1.07e-06	1.32e-06	1.65e-06	2.06e-06
